Data taken from article PMC4164440, “Blood Pressure-Lowering Peptides from Neo-Fermented Buckwheat Sprouts: A New Approach to Estimating ACE-Inhibitory Activity” (PLoS ONE, 2014).
Like-named read-outs stand apart in the source and are kept apart here. Where a SMILES comes first, the peptide text is derived from it.

Experiments:
[1] = target: T1, ACE (EC 3.4.15.1) purified from the rabbit lungs (Oryctolagus cuniculus, UniProt P12822); experiment: biochemical
T1 construct: ACE (EC 3.4.15.1) purified from the rabbit lungs; purchased Sigma-Aldrich Japan K.K; host or cells: rabbit lung (tissue-purified)
T1 sequence (P12822 34-1310): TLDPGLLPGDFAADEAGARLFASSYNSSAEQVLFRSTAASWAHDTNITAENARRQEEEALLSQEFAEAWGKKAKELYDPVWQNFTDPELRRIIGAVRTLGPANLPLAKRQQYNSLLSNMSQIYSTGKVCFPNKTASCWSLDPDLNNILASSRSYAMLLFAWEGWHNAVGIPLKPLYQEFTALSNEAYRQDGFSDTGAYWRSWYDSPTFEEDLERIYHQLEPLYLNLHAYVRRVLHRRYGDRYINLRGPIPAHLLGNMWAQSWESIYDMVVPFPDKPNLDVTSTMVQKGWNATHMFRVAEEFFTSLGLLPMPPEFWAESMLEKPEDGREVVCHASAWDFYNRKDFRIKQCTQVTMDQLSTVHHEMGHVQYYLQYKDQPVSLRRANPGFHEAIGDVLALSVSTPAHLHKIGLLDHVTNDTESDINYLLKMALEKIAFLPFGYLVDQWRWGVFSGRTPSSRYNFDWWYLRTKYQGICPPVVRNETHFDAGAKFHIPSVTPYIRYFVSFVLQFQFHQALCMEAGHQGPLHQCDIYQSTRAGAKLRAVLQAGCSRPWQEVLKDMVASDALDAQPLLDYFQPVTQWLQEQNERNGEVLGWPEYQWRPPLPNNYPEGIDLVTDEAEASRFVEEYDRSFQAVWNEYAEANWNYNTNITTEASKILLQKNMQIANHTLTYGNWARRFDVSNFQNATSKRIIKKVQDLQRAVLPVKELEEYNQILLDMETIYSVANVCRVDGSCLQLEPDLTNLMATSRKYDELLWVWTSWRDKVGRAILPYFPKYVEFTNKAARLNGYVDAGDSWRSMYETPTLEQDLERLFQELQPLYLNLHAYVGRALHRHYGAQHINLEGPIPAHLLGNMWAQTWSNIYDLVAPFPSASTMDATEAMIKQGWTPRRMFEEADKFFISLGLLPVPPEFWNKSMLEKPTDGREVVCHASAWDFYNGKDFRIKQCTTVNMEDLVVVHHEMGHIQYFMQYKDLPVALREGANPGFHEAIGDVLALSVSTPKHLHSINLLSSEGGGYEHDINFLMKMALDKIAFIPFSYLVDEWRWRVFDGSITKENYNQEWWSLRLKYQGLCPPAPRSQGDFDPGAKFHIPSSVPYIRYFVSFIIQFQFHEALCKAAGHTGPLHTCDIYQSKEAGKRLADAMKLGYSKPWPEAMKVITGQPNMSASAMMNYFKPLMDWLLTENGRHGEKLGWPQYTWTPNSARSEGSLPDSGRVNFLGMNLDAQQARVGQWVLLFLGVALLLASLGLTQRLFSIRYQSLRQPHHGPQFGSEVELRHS
Source text: ACE (EC 3.4.15.1) purified from the rabbit lungs was obtained from Sigma-Aldrich Japan K.K. (Tokyo, Japan). Hippuryl-L-histidyl-L-leucine (Hip-His-Leu) was obtained from the Peptide Institute (Osaka, Japan). Ammonium formate, borate, diethyl ether, ethyl acetate, formate, hydrochloric acid (HCl), HPLC-grade acetonitrile, sodium chloride (NaCl), potassium chloride (KCl), potassium dihydrogen phosphate (KH2PO4), magnesium acetate (Mg(CH3COO)2), magnesium sulfate (MgSO4), Nonidet P-40, sodium hydrogen carbonate (NaHCO3), sucrose, and tris(hydroxymethyl)aminomethane were purchased from Kanto Chemical Co., Inc. (Tokyo, Japan). Trifluoroacetic acid (TFA) was purchased from Watanabe Chemical Industries, Ltd. (Hiroshima, Japan).
The in vitro ACE inhibition assay was performed using the method described previously. […] Then, 100 µL of commercial ACE (6.0 mU) was added, and the mixture was incubated at 37°C for 30 min. The reaction was stopped by 250 µL of 1.0 N HCl. Released hippuric acid (Hip) was extracted with 1.0 mL ethyl acetate and quantified by HPLC according to our previous report.

[2] = target: T2, Ang II-mediated vasoconstriction (Rattus norvegicus, UniProt P47820); experiment: Ex vivo ACE inhibition assay: Ang II-mediated vasoconstriction of endothelium-denuded thoracic aorta rings; parameters: species or system spontaneously hypertensive rats (SHRs); conditions: 0.2 µM Ang I, read-out: EC50 of suppression of Ang II-mediated vasoconstriction
T2 sequence (P47820 36-1313): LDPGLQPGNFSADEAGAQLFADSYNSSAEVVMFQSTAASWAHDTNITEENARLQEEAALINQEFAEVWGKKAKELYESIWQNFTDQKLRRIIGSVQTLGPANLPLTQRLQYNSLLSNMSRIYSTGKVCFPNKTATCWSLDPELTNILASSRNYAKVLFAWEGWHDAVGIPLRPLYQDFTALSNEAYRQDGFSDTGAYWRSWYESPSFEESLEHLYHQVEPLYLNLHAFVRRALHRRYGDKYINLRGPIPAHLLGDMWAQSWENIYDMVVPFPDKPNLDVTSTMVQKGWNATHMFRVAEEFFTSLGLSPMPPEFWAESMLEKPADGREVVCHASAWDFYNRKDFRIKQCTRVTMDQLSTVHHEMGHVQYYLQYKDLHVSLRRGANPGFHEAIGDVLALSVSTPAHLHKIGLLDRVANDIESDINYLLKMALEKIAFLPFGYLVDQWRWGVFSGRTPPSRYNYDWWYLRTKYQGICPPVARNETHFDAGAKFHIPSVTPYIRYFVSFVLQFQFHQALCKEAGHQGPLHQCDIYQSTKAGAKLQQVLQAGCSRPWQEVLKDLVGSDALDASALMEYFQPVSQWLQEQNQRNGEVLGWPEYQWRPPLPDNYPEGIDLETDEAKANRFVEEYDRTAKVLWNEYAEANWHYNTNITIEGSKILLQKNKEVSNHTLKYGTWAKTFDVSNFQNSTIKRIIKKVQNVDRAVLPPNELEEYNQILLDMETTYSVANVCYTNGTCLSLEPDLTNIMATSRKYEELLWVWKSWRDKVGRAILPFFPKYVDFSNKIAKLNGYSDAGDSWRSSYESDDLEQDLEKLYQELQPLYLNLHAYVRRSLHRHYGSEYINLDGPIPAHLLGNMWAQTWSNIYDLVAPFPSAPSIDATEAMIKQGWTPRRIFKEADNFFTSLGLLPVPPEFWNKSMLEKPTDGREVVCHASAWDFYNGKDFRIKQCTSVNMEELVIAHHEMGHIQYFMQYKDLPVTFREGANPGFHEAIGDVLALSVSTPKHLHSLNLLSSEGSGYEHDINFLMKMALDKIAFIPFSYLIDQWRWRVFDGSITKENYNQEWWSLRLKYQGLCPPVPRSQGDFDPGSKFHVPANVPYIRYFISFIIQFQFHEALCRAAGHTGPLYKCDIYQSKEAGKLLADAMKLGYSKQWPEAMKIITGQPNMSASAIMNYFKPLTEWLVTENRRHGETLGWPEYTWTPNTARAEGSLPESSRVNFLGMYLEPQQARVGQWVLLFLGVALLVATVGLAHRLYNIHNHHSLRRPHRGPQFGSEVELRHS

[3] = target: T3, ACE in thoracic aorta tissue (Rattus norvegicus, UniProt P47820); experiment: Ex vivo ACE inhibition assay: Ang II production in endothelium-denuded thoracic aorta rings (UPLC-MS)
T3 sequence (P47820 36-1313): T2 sequence (P47820 36-1313)
Procedure: Isolation of the thoracic aorta from SHRs (n = 12) and preparation of endothelium-denuded aortic rings was performed as described above. Endothelium was removed to eliminate the influence of endothelium-derived vasodilators.
After 30 min incubation, 1.0 mL of 0.20 µM Ang I was added and the aortic tension was recorded. When vasoconstriction plateaued, Krebs solution in the organ bath was transferred to a test tube and heated at 90°C for 5 min to stop the enzyme reaction; the heat-treated samples were dried under vacuum and frozen at −80°C until UPLC-MS analysis. The aorta rings were used in the BCA assay to express Ang II production as pmol/mg-protein.
Vacuum-dried samples were dissolved in 500 µL acetonitrile/4.0 mM ammonium formate (5∶95 v/v) with 4.0 mM formic acid prior to UPLC-MS analysis, performed at the CREFAS (Collaborated Research Center for Food Functions, Faculty of Agriculture, Shinshu University); Quattro micro API (MS) with an ACQUITY UPLC (Waters Co., USA) was used. Separation was conducted at 35°C using a CHEMCOBOND 5-ODS-W reversed-phase column (4.6×150 mm; ChemcoPlus Scientific Co., Ltd. Kyoto, Japan). […] Mass spectra were acquired in electrospray ionization (ESI) mode using 3500 V capillary voltage, 30 V cone voltage, 350 L/h N2 gas flow (desolvation), 50 L/h N2 gas flow (cone), 100°C source temperature, and 350°C desolvation temperature. […] For each sample, measurements were performed in triplicate; the results were expressed as the mean ± S.E.

[4] = tested on: systolic and diastolic blood pressure; conditions: SHRs; ref [8]; cited from earlier work
[5] = tested on: ACE; parameters: method as in PMID 7673515; conditions: ref [7], [8]; read-out: in vitro ACE-inhibitory activity IC50; cited from earlier work
[6] = Hip-His-Leu substrate, mean ± S.E., n = 3, read-out: In vitro ACE-inhibitory activity IC50

Row | IC50 [1, 6] | Molecule | IC50 [1] | EC50 [2] | IC50 [3] | also measured
1 |  | CC(C)[C@H](NC(=O)[C@@H](N)CC(=O)O)C(=O)N[C@@H](Cc1c[nH]c2ccccc12)C(=O)N[C@@H](Cc1ccc(O)cc1)C(=O)O [DVWY] (H-DVWY-OH) | 690 ± 40 µM | 68.2 µM | 70.5 µM | 
2 |  | C[C@H](NC(=O)[C@H](CC(=O)O)NC(=O)[C@@H](N)Cc1ccccc1)C(=O)N[C@@H](CCCNC(=N)N)C(=O)N[C@H](C(=O)O)[C@@H](C)O [FDART] (H-FDART-OH) | 1900 ± 100 µM | 53.6 µM | 41.7 µM | 
3 | 7400 ± 600 µM | NC(=O)CC[C@H](NC(=O)[C@@H](N)Cc1ccccc1)C(=O)O [FQ] |  | 85.1 µM | 90.9 µM | 
4 | 55900 ± 1900 µM | CC(C)[C@H](N)C(=O)N[C@@H](C)C(=O)N[C@@H](CCC(=O)O)C(=O)O [VAE] (H-Val-Ala-Glu-OH) |  |  |  | 
5 | 39600 ± 5700 µM | CC(C)[C@H](N)C(=O)N[C@H](C(=O)NCC(=O)O)C(C)C [VVG] (H-Val-Val-Gly-OH) |  |  |  | 
6 |  | C[C@@H](O)[C@H](NC(=O)[C@@H](N)Cc1c[nH]c2ccccc12)C(=O)N[C@@H](Cc1ccccc1)C(=O)N[C@@H](CCCNC(=N)N)C(=O)O [WTFR] (H-WTFR-OH) | 6700 ± 500 µM | 36.8 µM | 5.64 µM | reduction of Ang II production ([3]; at 10 µM, endothelium-denuded rings, 0.2 µM Ang I): 59%
7 |  | Val-Tyr [VY] |  |  |  | minimum effective BPL dose [4]: 1.0 mg/kg; IC50 [5]: 26 µM
